This note sets out measurements from patent publication US20170298056A1, “SMALL MOLECULE INHIBITORS OF HIV-1 ENTRY AND METHODS OF USE THEREOF” (Dana-Farber Cancer Institute, Inc., priority 2014, published 2017).

In experiment [1] the test system is HIV-1JR-FL E168K+N188AΔCT Env trimer. Nature of the experiment: PG9 antibody binding to cell-surface Env trimer (flow cytometry). How it is done: Flow cytometry. […] After 48-72 hours, cells were detached with 5 mM EDTA/PBS and between 0.5-1 million cells were briefly incubated with various concentrations of 18A and then with or without the indicated concentrations of sCD4. C34-Ig (at a final concentration of 20 μg/ml) or a specified antibody (at final concentration of 1 μg/ml) was added to the cells. […] Cells were washed twice and analyzed with a BD FACSCanto II flow cytometer (BD Biosciences). For analysis of resistant mutants (FIG. 5e-g), the measurements were normalized for the level of sCD4 binding of each mutant, and the response of each mutant was further normalized to that of the wild-type HIV-1JR-FL E168K+N188AΔCT Env (herein designated WTKA). […] The sCD4 IC50/sCD4 binding ratio (FIGS. 4c and e) was calculated as follows. Binding of sCD4 to different envelope mutants was measured by flow cytometry and normalized first to 2G12 binding to account for potentially different Env expression levels, and then to sCD4 binding to the wild-type HIV-1JR-FL Env. The IC50 of sCD4 for inhibition of virus infection by each mutant Env was divided by the normalized sCD4 binding to Env-expressing cells to calculate the sCD4 IC50/sCD4 binding value.
(In general: Flow cytometry measures light scatter and fluorescence of single cells or particles in a stream.)

For experiment [2], the system named is F-luc expression in H-Fluc4 cells. Description: Specificity control assay (induced firefly luciferase, H-Fluc4 cells). It counts as cell-based. How it is done:
(§1) H-JRFL#1336 (effector) and H-Fluc4 (control) cells were grown in DMEM containing 10% FBS, 100 μg/ml streptomycin, 100 units/ml penicillin, 200 μg/ml G418, 1 μg/ml puromycin and 2 μg/ml doxycycline. H-JRFL#13 cells carry an HIV-1JR-FL env gene that is induced by growing the cells in the absence of doxycycline (Tet-Off expression system). H-Fluc4 cells, which carry a firefly luciferase gene that is induced in the absence of doxycycline, were used as specificity controls. Both cell lines were derived from HeLa cells and constitutively express the tetracycline-regulated transactivator (Tet-Off expression system). […]
(§2) H-JRFL#13 or H-FLuc4 cells were washed thrice, detached with StemPro Accutase, centrifuged at 200×g for 6 minutes at 10° C. and seeded in DMEM containing 10% tetracycline-approved FBS, 100 μg/ml streptomycin, 100 units/ml penicillin, 100 μg/ml G418, 1 μg/ml puromycin and without Phenol Red. […] Firefly luciferase activity was measured using an EnVision Multilabel Plate Reader (PerkinElmer, Boston, Mass.). […]
(§3) To identify new molecules that potentially affect HIV-1 entry, a cell-cell fusion assay that mimics the entry of HIV-1 into cells was established (FIG. 1a). The assay uses a firefly luciferase (F-luc) readout to measure the fusion of HeLa effector cells that express the Envs from a primary HIV-1 strain and target cells coexpressing the CD4 and CCR5 receptors. […]

In experiment [3] the test system is cell-cell fusion mediated by HIV-1JR-FL and HIV-1ADS Envs. Description: Cell-cell fusion assay. It counts as cell-based. How it is done:
as §1, §2, §3

For `O=C(N/N=C/c1ccc(O)cc1)Nc1cccc2nsnc12` [Compound 18A], in experiment [1] (18A added prior to sCD4 incubation, 37.6% without sCD4, 6.6% with sCD4 alone), the PG9 binding turned out to be 24.1%. In addition, the “basal level of PG9 binding” value in experiment [1] (absence of sCD4) was “did not affect”. In experiment [2], this compound returned an IC50 of 15.1 ± 1.1 µM. In addition, the cell-cell fusion result in experiment [3] is “specifically inhibited cell-cell fusion”.

What is called IC50 is the midpoint of a concentration-inhibition curve. A lower IC50 goes with greater potency in that assay.
